Test results taken from ChEMBL document CHEMBL1150545, “CP-71,362, an unusually potent inhibitor of rat and dog renin” (Bioorg Med Chem Lett, 1994).
*1 amine or outer side, *2 acyl side, *3 side chain or, on linkers, in order; H or OH if unused. Where a SMILES comes first, the peptide text is derived from it. [ ]: non-standard residue; d: D form. The star is where a group is joined. X1 = CC(C)C[C@H](C[C@H](O)[C@H](CC1CCCCC1)N[*:1])C(=O)[*:2]; Boc = CC(C)(C)OC(=O)*

How the values were obtained:
Rattus norvegicus [1] = species: Rattus norvegicus; test: Infusion rate producing a decrease in MAP of between 30 and 40 mmHg in the rat; type: functional
Canis familiaris [2] = species: Canis familiaris; test: Infusion rate producing half of the maximal decrease in renin dependent blood pressure in dogs; type: functional, Canis lupus familiaris
Rattus norvegicus [3] = species: Rattus norvegicus; test: Infusion rate producing half of the maximal decrease in renin dependent blood pressure in rats; type: functional
Renin [4] = biological target: T1, Renin (Rattus norvegicus, UniProt P08424); test: Compound was tested for its inhibitory activity against Rat plasma renin; type: cell-free
T1 sequence (P08424 whole entry): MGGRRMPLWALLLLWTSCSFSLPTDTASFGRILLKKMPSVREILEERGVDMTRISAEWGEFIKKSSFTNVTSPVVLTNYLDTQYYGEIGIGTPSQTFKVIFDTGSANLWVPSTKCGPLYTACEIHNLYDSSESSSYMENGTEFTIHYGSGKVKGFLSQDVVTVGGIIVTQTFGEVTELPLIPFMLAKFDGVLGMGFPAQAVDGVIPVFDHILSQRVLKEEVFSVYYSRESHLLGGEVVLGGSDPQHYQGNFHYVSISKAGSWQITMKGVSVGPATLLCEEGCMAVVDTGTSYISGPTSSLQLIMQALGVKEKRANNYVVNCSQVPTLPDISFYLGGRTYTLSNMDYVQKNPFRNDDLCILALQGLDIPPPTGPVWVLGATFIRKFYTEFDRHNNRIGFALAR

Canis familiaris [5] = test: Decrease in mean arterial pressure in anesthetized, sodium depleted dogs, at 3.7+/0.4 ug/Kg/min infusion rate; type: functional, Canis lupus familiaris, Artery
Renin [6] = biological target: T2, Renin (Homo sapiens, UniProt P00797); test: Compound was tested for its inhibitory activity against human plasma renin; type: cell-free
T2 sequence (P00797 whole entry): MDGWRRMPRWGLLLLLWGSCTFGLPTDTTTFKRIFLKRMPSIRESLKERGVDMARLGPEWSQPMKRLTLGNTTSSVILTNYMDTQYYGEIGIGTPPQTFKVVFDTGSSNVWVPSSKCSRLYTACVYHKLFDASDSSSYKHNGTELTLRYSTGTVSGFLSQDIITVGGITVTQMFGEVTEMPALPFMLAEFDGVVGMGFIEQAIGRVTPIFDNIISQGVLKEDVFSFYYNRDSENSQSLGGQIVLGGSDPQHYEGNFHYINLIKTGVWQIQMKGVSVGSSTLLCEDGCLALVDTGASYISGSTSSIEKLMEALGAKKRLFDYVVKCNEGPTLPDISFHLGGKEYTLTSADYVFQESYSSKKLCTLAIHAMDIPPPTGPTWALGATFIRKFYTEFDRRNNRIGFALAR

Renin (Canis familiaris) = test: Compound was tested for its inhibitory activity against dog plasma renin

IC50 (Renin [4]): 3 nM | IC50 (Renin [6]): 20 nM | IC50 (Renin (Canis familiaris)): 0.03 nM
Structure (SMILES): CC(=O)O.CC(C)C[C@H](C[C@H](O)[C@H](CC1CCCCC1)NC(=O)[C@H](Cc1c[nH]cn1)NC(=O)[C@H](Cc1ccccc1)NC(=O)OC(C)(C)C)C(=O)N[C@@H](CCCCN)C(=O)N[C@@H](Cc1ccccc1)C(=O)O (Boc-FH[X1]KF-OH)
Infusion rate (Rattus norvegicus [1]): 30 µg/min/kg | Infusion rate (Canis familiaris [2]): 1.1 µg/min/kg | Infusion rate (Rattus norvegicus [3]): 9.7 µg/min/kg | MAP (Canis familiaris [5]): 35 mmHg
